Experimental data as given in US20240368135A1 (VERTEX PHARMACEUTICALS INCORPORATED, priority 2021, published 2024).

Biological target: human NaV 1.8 (Homo sapiens, UniProt Q9Y5Y9)
Assay: E-VIPR assay detecting and measuring NaV inhibition properties
Format: cell-based
Settings: HEK cells expressing truncated human NaV 1.8; no human serum; read-out: IC50 in the E-VIPR Assay
In short: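 Membrane potential was followed by coumarin/oxonol FRET during electrical field stimulation of matrigel-seeded HEK cells carrying truncated human NaV1.8 plus KIR2.1. Dosing used 11 points, 3-fold steps, top 300 nM final, 0.625% DMSO, with or without 25% human serum.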

Sequence of human NaV 1.8 (Q9Y5Y9 126-399 limits assumed): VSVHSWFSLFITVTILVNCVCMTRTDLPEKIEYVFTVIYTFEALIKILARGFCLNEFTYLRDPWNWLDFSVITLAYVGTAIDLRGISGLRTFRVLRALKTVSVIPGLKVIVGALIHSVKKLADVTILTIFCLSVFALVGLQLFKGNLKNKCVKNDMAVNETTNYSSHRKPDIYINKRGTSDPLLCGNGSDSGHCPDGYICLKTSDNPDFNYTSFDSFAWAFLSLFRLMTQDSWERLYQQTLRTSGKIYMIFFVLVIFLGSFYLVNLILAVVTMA
Sequence of human NaV 1.8 (Q9Y5Y9 660-890 limits assumed): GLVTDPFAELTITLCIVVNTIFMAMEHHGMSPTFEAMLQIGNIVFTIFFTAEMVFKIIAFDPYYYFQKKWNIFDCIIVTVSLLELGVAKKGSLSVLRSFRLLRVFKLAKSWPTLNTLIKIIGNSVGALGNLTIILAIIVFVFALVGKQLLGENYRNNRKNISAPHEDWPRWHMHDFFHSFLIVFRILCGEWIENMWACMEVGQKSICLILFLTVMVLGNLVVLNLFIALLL
Sequence of human NaV 1.8 (Q9Y5Y9 1148-1722 limits assumed): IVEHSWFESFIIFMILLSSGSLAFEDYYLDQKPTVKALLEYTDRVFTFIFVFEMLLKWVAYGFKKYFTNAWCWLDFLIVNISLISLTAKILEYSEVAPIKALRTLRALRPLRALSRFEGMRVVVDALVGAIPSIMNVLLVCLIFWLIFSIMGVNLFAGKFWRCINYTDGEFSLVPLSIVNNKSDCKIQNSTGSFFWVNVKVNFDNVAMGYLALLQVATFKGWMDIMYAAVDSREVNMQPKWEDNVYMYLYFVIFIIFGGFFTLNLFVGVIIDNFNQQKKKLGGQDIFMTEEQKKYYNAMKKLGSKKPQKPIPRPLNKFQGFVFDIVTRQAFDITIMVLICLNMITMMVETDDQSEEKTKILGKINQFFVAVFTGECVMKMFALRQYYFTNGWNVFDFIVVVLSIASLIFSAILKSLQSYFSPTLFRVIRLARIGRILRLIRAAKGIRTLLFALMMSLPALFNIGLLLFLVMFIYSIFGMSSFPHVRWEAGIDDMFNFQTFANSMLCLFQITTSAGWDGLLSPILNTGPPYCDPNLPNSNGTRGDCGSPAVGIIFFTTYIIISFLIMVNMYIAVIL

IC50	Structure (SMILES)
0.01 to 0.1 µM	C[C@H]1[C@@H](c2ccc(F)c(F)c2)[C@H](C(=O)Nc2ccnc(S(C)(=O)=O)c2)O[C@@]1(C)C(F)(F)F (stereo in doubt) [Compound 155, rel-(2R,3S,4S,5R)-3-(3,4-difluorophenyl)-4,5-dimethyl-N-(2-(methylsulfonyl)pyridin-4-yl)-5-(trifluoromethyl)tetrahydrofuran-2-carboxamide]
< 0.01 µM	COc1c([C@H]2[C@H](C(=O)Nc3ccc(C(N)=O)nc3)O[C@@](C)(C(F)(F)F)[C@H]2C)cccc1C(F)(F)F (stereo in doubt) [Compound 156, rel-5-((2R,3S,4S,5R)-3-(2-methoxy-3-(trifluoromethyl)phenyl)-4,5-dimethyl-5-(trifluoromethyl)tetrahydrofuran-2-carboxamido)picolinamide]
≥ 1 µM	COc1c([C@@H]2[C@@H](C(=O)Nc3ccc(C(N)=O)nc3)O[C@](C)(C(F)(F)F)[C@@H]2C)cccc1C(F)(F)F (stereo in doubt) [Compound 157, rel-5-((2S,3R,4R,5S)-3-(2-methoxy-3-(trifluoromethyl)phenyl)-4,5-dimethyl-5-(trifluoromethyl)tetrahydrofuran-2-carboxamido)picolinamide]
0.1 to 1 µM	COc1c([C@@H]2[C@@H](C(=O)Nc3ccc4cnnn4c3)O[C@](C)(C(F)(F)F)[C@@H]2C)ccc(F)c1C(F)F (stereo in doubt) [Compound 160, rel-(2S,3R,4R,5S)-N-([1,2,3]triazolo[1,5-a]pyridin-6-yl)-3-(3-(difluoromethyl)-4-fluoro-2-methoxyphenyl)-4,5-dimethyl-5-(trifluoromethyl)tetrahydrofuran-2-carboxamide]
< 0.01 µM	COc1c([C@H]2[C@H](C(=O)Nc3ccc4cnnn4c3)O[C@@](C)(C(F)(F)F)[C@H]2C)ccc(F)c1C(F)F (stereo in doubt) [Compound 161, rel-(2R,3S,4S,5R)—N-([1,2,3]triazolo[1,5-a]pyridin-6-yl)-3-(3-(difluoromethyl)-4-fluoro-2-methoxyphenyl)-4,5-dimethyl-5-(trifluoromethyl)tetrahydrofuran-2-carboxamide]
< 0.01 µM	COc1c([C@H]2[C@H](C(=O)Nc3ccc(C(N)=O)nc3)O[C@@](C)(C(F)(F)F)[C@H]2C)ccc(F)c1C(F)F (stereo in doubt) [Compound 168, rel-5-((2R,3S,4S,5R)-3-(3-(difluoromethyl)-4-fluoro-2-methoxyphenyl)-4,5-dimethyl-5-(trifluoromethyl)tetrahydrofuran-2-carboxamido)picolinamide]
≥ 1 µM	COc1c([C@@H]2[C@@H](C(=O)Nc3ccc(C(N)=O)nc3)O[C@](C)(C(F)(F)F)[C@@H]2C)ccc(F)c1C(F)F (stereo in doubt) [Compound 169, rel-5-((2S,3R,4R,5S)-3-(3-(difluoromethyl)-4-fluoro-2-methoxyphenyl)-4,5-dimethyl-5-(trifluoromethyl)tetrahydrofuran-2-carboxamido)picolinamide]
< 0.01 µM	CNC(=O)c1ccc(NC(=O)[C@@H]2O[C@@](C)(C(F)(F)F)[C@@H](C)[C@H]2c2ccc(F)c(C(F)F)c2OC)cn1 (stereo in doubt) [Compound 170, rel-5-((2R,3S,4S,5R)-3-(3-(difluoromethyl)-4-fluoro-2-methoxyphenyl)-4,5-dimethyl-5-(trifluoromethyl)tetrahydrofuran-2-carboxamido)-N-methylpicolinamide]

Second part, the compound before the results:

Structure (SMILES)	IC50
C[C@H]1[C@@H](c2ccc(F)c(F)c2OC(F)F)[C@H](C(=O)Nc2ccnnc2)O[C@@]1(C)C(F)(F)F (stereo in doubt) [Compound 64, rel-(2R,3S,4S,5R)-3-(2-(difluoromethoxy)-3,4-difluorophenyl)-4,5-dimethyl-N-(pyridazin-4-yl)-5-(trifluoromethyl)tetrahydrofuran-2-carboxamide]	< 0.01 µM
C[C@@H]1[C@H](c2ccc(F)c(F)c2OC(F)F)[C@@H](C(=O)Nc2ccc(C(N)=O)cc2)O[C@]1(C)C(F)(F)F (stereo in doubt) [Compound 73, rel-(2S,3R,4R,5S)-N-(4-carbamoylphenyl)-3-(2-(difluoromethoxy)-3,4-difluorophenyl)-4,5-dimethyl-5-(trifluoromethyl)tetrahydrofuran-2-carboxamide]	≥ 1 µM
C[C@H]1[C@@H](c2ccc(F)c(F)c2OC(F)F)[C@H](C(=O)Nc2ccc(C(N)=O)cc2)O[C@@]1(C)C(F)(F)F (stereo in doubt) [Compound 74, rel-(2R,3S,4S,5R)-N-(4-carbamoylphenyl)-3-(2-(difluoromethoxy)-3,4-difluorophenyl)-4,5-dimethyl-5-(trifluoromethyl)tetrahydrofuran-2-carboxamide]	< 0.01 µM
Cc1c(F)ccc([C@@H]2[C@@H](C(=O)Nc3ccn(C)c(=O)c3)O[C@](C)(C(F)(F)F)[C@@H]2C)c1OC(F)F (stereo in doubt) [Compound 99, rel-(2S,3R,4R,5S)-3-(2-(difluoromethoxy)-4-fluoro-3-methylphenyl)-4,5-dimethyl-N-(1-methyl-2-oxo-1,2-dihydropyridin-4-yl)-5-(trifluoromethyl)tetrahydrofuran-2-carboxamide]	≥ 1 µM
Cc1c(F)ccc([C@H]2[C@H](C(=O)Nc3ccn(C)c(=O)c3)O[C@@](C)(C(F)(F)F)[C@H]2C)c1OC(F)F (stereo in doubt) [Compound 100, rel-(2R,3S,4S,5R)-3-(2-(difluoromethoxy)-4-fluoro-3-methylphenyl)-4,5-dimethyl-N-(1-methyl-2-oxo-1,2-dihydropyridin-4-yl)-5-(trifluoromethyl)tetrahydrofuran-2-carboxamide]	< 0.01 µM
CCOc1c([C@H]2[C@H](C(=O)Nc3ccn(C)c(=O)c3)O[C@@](C)(C(F)(F)F)[C@H]2C)ccc(F)c1F (stereo in doubt) [Compound 101, rac-(2R,3S,4S,5R)-3-(2-ethoxy-3,4-difluorophenyl)-4,5-dimethyl-N-(1-methyl-2-oxo-1,2-dihydropyridin-4-yl)-5-(trifluoromethyl)tetrahydrofuran-2-carboxamide]	< 0.01 µM
CCOc1c([C@@H]2[C@@H](C(=O)Nc3ccn(C)c(=O)c3)O[C@](C)(C(F)(F)F)[C@@H]2C)ccc(F)c1F (stereo in doubt) [Compound 102, rel-(2S,3R,4R,5S)-3-(2-ethoxy-3,4-difluorophenyl)-4,5-dimethyl-N-(1-methyl-2-oxo-1,2-dihydropyridin-4-yl)-5-(trifluoromethyl)tetrahydrofuran-2-carboxamide]	≥ 1 µM
CCOc1c([C@H]2[C@H](C(=O)Nc3ccn(C)c(=O)c3)O[C@@](C)(C(F)(F)F)[C@H]2C)ccc(F)c1F (stereo in doubt) [Compound 103, rel-(2R,3S,4S,5R)-3-(2-ethoxy-3,4-difluorophenyl)-4,5-dimethyl-N-(1-methyl-2-oxo-1,2-dihydropyridin-4-yl)-5-(trifluoromethyl)tetrahydrofuran-2-carboxamide]	< 0.01 µM
CCOc1c([C@@H]2[C@@H](C(=O)Nc3cncc(S(C)(=O)=O)c3)O[C@](C)(C(F)(F)F)[C@@H]2C)ccc(F)c1F (stereo in doubt) [Compound 106, rel-(2S,3R,4R,5S)-3-(2-ethoxy-3,4-difluorophenyl)-4,5-dimethyl-N-(5-(methylsulfonyl)pyridin-3-yl)-5-(trifluoromethyl)tetrahydrofuran-2-carboxamide]	0.1 to 1 µM
CCOc1c([C@H]2[C@H](C(=O)Nc3cncc(S(C)(=O)=O)c3)O[C@@](C)(C(F)(F)F)[C@H]2C)ccc(F)c1F (stereo in doubt) [Compound 107, rel-(2R,3S,4S,5R)-3-(2-ethoxy-3,4-difluorophenyl)-4,5-dimethyl-N-(5-(methylsulfonyl)pyridin-3-yl)-5-(trifluoromethyl)tetrahydrofuran-2-carboxamide]	< 0.01 µM
CCOc1c([C@H]2[C@H](C(=O)Nc3ccnc(S(C)(=O)=O)c3)O[C@@](C)(C(F)(F)F)[C@H]2C)ccc(F)c1F (stereo in doubt) [Compound 108, rel-(2R,3S,4S,5R)-3-(2-ethoxy-3,4-difluorophenyl)-4,5-dimethyl-N-(2-(methylsulfonyl)pyridin-4-yl)-5-(trifluoromethyl)tetrahydrofuran-2-carboxamide]	< 0.01 µM
CCOc1c([C@H]2[C@H](C(=O)Nc3ccn4nnnc4c3)O[C@@](C)(C(F)(F)F)[C@H]2C)ccc(F)c1C (stereo in doubt) [Compound 121, rac-(2R,3S,4S,5R)-3-(2-ethoxy-4-fluoro-3-methylphenyl)-4,5-dimethyl-N-(tetrazolo[1,5-a]pyridin-7-yl)-5-(trifluoromethyl)tetrahydrofuran-2-carboxamide]	< 0.01 µM
CCOc1c([C@@H]2[C@@H](C(=O)Nc3ccn4nnnc4c3)O[C@](C)(C(F)(F)F)[C@@H]2C)ccc(F)c1C (stereo in doubt) [Compound 122, rel-(2S,3R,4R,5S)-3-(2-ethoxy-4-fluoro-3-methylphenyl)-4,5-dimethyl-N-(tetrazolo[1,5-a]pyridin-7-yl)-5-(trifluoromethyl)tetrahydrofuran-2-carboxamide]	0.1 to 1 µM
CCOc1c([C@H]2[C@H](C(=O)Nc3ccn4nnnc4c3)O[C@@](C)(C(F)(F)F)[C@H]2C)ccc(F)c1C (stereo in doubt) [Compound 123, rel-(2R,3S,4S,5R)-3-(2-ethoxy-4-fluoro-3-methylphenyl)-4,5-dimethyl-N-(tetrazolo[1,5-a]pyridin-7-yl)-5-(trifluoromethyl)tetrahydrofuran-2-carboxamide]	< 0.01 µM
C[C@@H]1[C@H](c2ccc(F)c(F)c2)[C@@H](C(=O)Nc2ccnc(S(C)(=O)=O)c2)O[C@]1(C)C(F)(F)F (stereo in doubt) [Compound 154, rel-(2S,3R,4R,5S)-3-(3,4-difluorophenyl)-4,5-dimethyl-N-(2-(methylsulfonyl)pyridin-4-yl)-5-(trifluoromethyl)tetrahydrofuran-2-carboxamide]	≥ 1 µM
